IC50 data for 33 compounds are collected here from the Kinase Knowledgebase extract (Sharma et al. 2016).

A value given as a limit tells only on which side of the number the result lay.

This test addresses MAPK14 (human) (UniProt Q16539). As to the kind of experiment: Inhibition of MAPK14 Kinase Activity.

MAPK14 (human), sequence (Q16539 whole entry, looked up): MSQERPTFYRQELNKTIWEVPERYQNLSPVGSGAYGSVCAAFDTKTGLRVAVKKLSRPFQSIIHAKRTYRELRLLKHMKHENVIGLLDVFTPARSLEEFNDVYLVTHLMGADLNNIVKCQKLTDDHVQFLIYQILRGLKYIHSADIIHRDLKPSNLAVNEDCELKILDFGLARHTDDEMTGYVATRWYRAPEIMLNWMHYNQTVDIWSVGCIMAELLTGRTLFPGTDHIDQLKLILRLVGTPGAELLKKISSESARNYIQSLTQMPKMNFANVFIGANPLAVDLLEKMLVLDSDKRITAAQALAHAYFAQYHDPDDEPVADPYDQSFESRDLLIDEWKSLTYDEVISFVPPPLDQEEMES

In general, IC50 refers to the concentration that inhibits the measured activity by half. Compound `CC(C)Cn1ncc2cc(Nc3ccc(F)cc3F)ccc21` came in with a half-inhibitory concentration (IC50) below 500 nM.

On to `CN(C)CCNC(=O)c1cc2c(cnn2CC(F)(F)F)cc1Oc1ccc(F)cc1`, for which the IC50 was below 500 nM.

Compound `CC(C)Cn1ncc2cc(C(=NOCc3ccccc3)c3ccc(F)cc3F)ccc21` returned a concentration for half-maximal inhibition (IC50) below 500 nM.

Compound `CC(C)Cn1ncc2cc(Nc3ccc(F)cc3)ccc21` came in with an IC50 below 500 nM.

`ON=C(c1ccc2c(cnn2CC(F)(F)F)c1)c1ccc(F)cc1F` returned a concentration for half-maximal inhibition (IC50) below 500 nM.

In turn, `Cc1ccccc1Nc1ccc2c(cnn2CC(C)C)c1` gave an IC50 below 500 nM.

`CC(C)Cn1ncc2cc(C(O)c3ccc(F)cc3)ccc21` (stereo not drawn) gave an IC50 below 500 nM.

Take `CCON=C(c1ccc2c(cnn2CC(C)C)c1)c1ccc(F)cc1F`: the IC50 is below 500 nM.

Compound `Cc1ccccc1C(O)c1ccc2c(cnn2CC(C)C)c1` (stereo not drawn) displayed an IC50 below 500 nM.

`CC(C)Cn1ncc2cc(C(=O)c3ccc(Cl)cc3Cl)ccc21` yielded an IC50 below 500 nM.

On to `C=CCn1ncc2cc(C(=NO)c3ccc(F)cc3F)ccc21`, for which the half-inhibitory concentration (IC50) is below 500 nM.

On to `CC(C)Cn1ncc2cc(C(=O)c3ccc(F)cc3)ccc21`, for which the half-inhibitory concentration (IC50) was below 500 nM.

The compound `C=CCn1ncc2cc(C(=O)c3ccc(F)cc3F)ccc21` registered a half-maximal inhibitory concentration (IC50) below 500 nM.

`CC(C)Cn1ncc2cc(C(=O)c3ccc(F)cc3F)ccc21` displayed an IC50 below 500 nM.

`CC(C)Cn1ncc2cc(Oc3ccc(F)cc3)c(C(N)=O)cc21` had a half-inhibitory concentration (IC50) below 500 nM.

In the case of `CC(C)Cn1ncc2cc(C(O)c3ccc(Cl)cc3Cl)ccc21` (stereo not drawn), the IC50 was below 500 nM.

`CC(C)Cn1ncc2cc(C(O)c3ccc(F)cc3F)ccc21` (stereo not drawn) showed a half-maximal inhibitory concentration (IC50) below 500 nM.

`CC(C)Cn1ncc2cc(C(O)c3ccc(Cl)cc3F)ccc21` (stereo not drawn) displayed an IC50 below 500 nM.

`COC(=O)C(CCN)NC(=O)c1cc2c(cnn2CC(F)(F)F)cc1Oc1ccc(F)cc1` (stereo not drawn) returned an IC50 below 500 nM.

Take `CC(C)Cn1ncc2cc(C(=NO)c3ccc(F)cc3F)ccc21`: the IC50 is below 500 nM.

In turn, `Cc1ccccc1C(=O)c1ccc2c(cnn2CC(C)C)c1` returned an IC50 below 500 nM.

Compound `CC(C)Cn1ncc2cc(C(=O)c3ccc(Cl)cc3F)ccc21` had an IC50 below 500 nM.

Compound `CC(C)Cn1ncc2cc(C(=O)c3ccc(F)cc3Cl)ccc21` returned a half-maximal inhibitory concentration (IC50) below 500 nM.

With `CC(C)Cn1ncc2cc(Oc3ccc(F)cc3)c(C(=O)NCCN(C)C)cc21`, the IC50 was below 500 nM.

For `CON=C(c1ccc(F)cc1)c1ccc2c(cnn2CC(C)C)c1`, the IC50 was below 500 nM.

In turn, `COC(=O)C(CCN)NC(=O)c1cc2c(cnn2CC(C)C)cc1Oc1ccc(F)cc1` (stereo not drawn) yielded a half-inhibitory concentration (IC50) below 500 nM.

Compound `CON=C(c1ccc2c(cnn2CC(F)(F)F)c1)c1ccc(F)cc1F` came in with a concentration for half-maximal inhibition (IC50) below 500 nM.

Take `CC(C)Cn1ncc2cc(C(O)c3ccc(F)cc3Cl)ccc21` (stereo not drawn): the IC50 is below 500 nM.

`O=C(c1ccc2c(cnn2CC(F)(F)F)c1)c1ccc(F)cc1F` showed an IC50 below 500 nM.

`CS(=O)(=O)n1ncc2cc(C(=NO)c3ccc(F)cc3F)ccc21`: the half-maximal inhibitory concentration (IC50) was below 500 nM.

`CON=C(c1ccc2c(cnn2S(C)(=O)=O)c1)c1ccc(F)cc1F` gave an IC50 below 500 nM.

For `CC(C)Cn1ncc2cc(C(=NO)c3ccc(F)cc3)ccc21`, the half-maximal inhibitory concentration (IC50) is below 500 nM.

In the case of `CCON=C(c1ccc(F)cc1)c1ccc2c(cnn2CC(C)C)c1`, the concentration for half-maximal inhibition (IC50) is below 500 nM.
